Measurements: the NIST ThermoML archive (doi:10.1016/j.fluid.2004.12.005)
Several values for one entry are separate records, joined by “and”; a condition that tells them apart may be missing. Equal values may be shown once.

What was measured:
[1] = activity coefficient (dimensionless); of the first substance listed, at infinite dilution; xn = mol fraction of the nth substance listed; conditions: Liquid, Chromatography, x1 = 0
[2] = Solid-liquid equilibrium temperature; conditions: 100 kPa; Crystal; visual observation
[3] = excess molar enthalpy (molar enthalpy of mixing); xn = mol fraction of the nth substance listed; conditions: Liquid, Flow calorimetry

CCOC(C)=O [ethyl acetate] + CCCCCCCCCC
[1]
Conditions | activity coefficient
303.16 K | 3.07
313.14 K | 2.95
323.17 K | 2.84
333.16 K | 2.75

c1ccccc1 [benzene]
Conditions | Solid-liquid equilibrium temperature [K]
[2] | 278.94

CCCCCCCCCC [decane] + CCOC(C)=O
[3]
Conditions | excess molar enthalpy [kJ/mol]
363.15 K, 1397 kPa, x2 = 0.0952 | 0.469
363.15 K, 1397 kPa, x2 = 0.1817 | 0.828
363.15 K, 1397 kPa, x2 = 0.2607 | 1.09
363.15 K, 1397 kPa, x2 = 0.3332 | 1.27
363.15 K, 1397 kPa, x2 = 0.3998 | 1.39
363.15 K, 1397 kPa, x2 = 0.4614 | 1.46
363.15 K, 1397 kPa, x2 = 0.5183 | 1.49
363.15 K, 1397 kPa, x2 = 0.5712 | 1.48
363.15 K, 1397 kPa, x2 = 0.6205 | 1.45
363.15 K, 1397 kPa, x2 = 0.6665 | 1.4
363.15 K, 1397 kPa, x2 = 0.7095 | 1.32
363.15 K, 1397 kPa, x2 = 0.7499 | 1.22
363.15 K, 1397 kPa, x2 = 0.7878 | 1.11
363.15 K, 1397 kPa, x2 = 0.8234 | 0.986
363.15 K, 1397 kPa, x2 = 0.8571 | 0.846
363.15 K, 1397 kPa, x2 = 0.8888 | 0.699
363.15 K, 1397 kPa, x2 = 0.9189 | 0.538
363.15 K, 1397 kPa, x2 = 0.9473 | 0.363
363.15 K, 1397 kPa, x2 = 0.9743 | 0.183
413.15 K, 1342 kPa, x2 = 0.0952 | 0.484
413.15 K, 1342 kPa, x2 = 0.1817 | 0.852
413.15 K, 1342 kPa, x2 = 0.2607 | 1.12
413.15 K, 1342 kPa, x2 = 0.3332 | 1.31
413.15 K, 1342 kPa, x2 = 0.3998 | 1.45
413.15 K, 1342 kPa, x2 = 0.4614 | 1.52
413.15 K, 1342 kPa, x2 = 0.5183 | 1.55
413.15 K, 1342 kPa, x2 = 0.5713 | 1.56
413.15 K, 1342 kPa, x2 = 0.6205 | 1.52
413.15 K, 1342 kPa, x2 = 0.6665 | 1.47
413.15 K, 1342 kPa, x2 = 0.7095 | 1.38
413.15 K, 1342 kPa, x2 = 0.7499 | 1.28
413.15 K, 1342 kPa, x2 = 0.7878 | 1.16
413.15 K, 1342 kPa, x2 = 0.8234 | 1.02
413.15 K, 1342 kPa, x2 = 0.8571 | 0.875
413.15 K, 1342 kPa, x2 = 0.8888 | 0.717
413.15 K, 1342 kPa, x2 = 0.9189 | 0.55
413.15 K, 1342 kPa, x2 = 0.9473 | 0.37
413.15 K, 1342 kPa, x2 = 0.9743 | 0.195

Cc1ccc(C)cc1 [1,4-dimethylbenzene]
Conditions | Solid-liquid equilibrium temperature [K]
[2] | 286.45

COC(C)=O [methyl ethanoate] + CCCCCCCCCC
[3]
Conditions | excess molar enthalpy [kJ/mol]
363.15 K, 1582 kPa, x1 = 0.1148 | 0.686
363.15 K, 1582 kPa, x1 = 0.2149 | 1.18
363.15 K, 1582 kPa, x1 = 0.303 | 1.51
363.15 K, 1582 kPa, x1 = 0.3811 | 1.73
363.15 K, 1582 kPa, x1 = 0.4509 | 1.85
363.15 K, 1582 kPa, x1 = 0.5135 | 1.91
363.15 K, 1582 kPa, x1 = 0.5701 | 1.92
363.15 K, 1582 kPa, x1 = 0.6215 | 1.88
363.15 K, 1582 kPa, x1 = 0.6684 | 1.82
363.15 K, 1582 kPa, x1 = 0.7112 | 1.74
363.15 K, 1582 kPa, x1 = 0.7507 | 1.62
363.15 K, 1582 kPa, x1 = 0.787 | 1.49
363.15 K, 1582 kPa, x1 = 0.8206 | 1.34
363.15 K, 1582 kPa, x1 = 0.8518 | 1.18
363.15 K, 1582 kPa, x1 = 0.8808 | 1.01
363.15 K, 1582 kPa, x1 = 0.9079 | 0.832
363.15 K, 1582 kPa, x1 = 0.9331 | 0.637
363.15 K, 1582 kPa, x1 = 0.9568 | 0.433
363.15 K, 1582 kPa, x1 = 0.9791 | 0.222
413.15 K, 1376 kPa, x1 = 0.1148 | 0.639
413.15 K, 1376 kPa, x1 = 0.2149 | 1.09
413.15 K, 1376 kPa, x1 = 0.303 | 1.4
413.15 K, 1376 kPa, x1 = 0.3811 | 1.61
413.15 K, 1376 kPa, x1 = 0.4509 | 1.74
413.15 K, 1376 kPa, x1 = 0.5136 | 1.8
413.15 K, 1376 kPa, x1 = 0.5702 | 1.81
413.15 K, 1376 kPa, x1 = 0.6215 | 1.79
413.15 K, 1376 kPa, x1 = 0.6684 | 1.73
413.15 K, 1376 kPa, x1 = 0.7113 | 1.66
413.15 K, 1376 kPa, x1 = 0.7507 | 1.55
413.15 K, 1376 kPa, x1 = 0.787 | 1.43
413.15 K, 1376 kPa, x1 = 0.8206 | 1.29
413.15 K, 1376 kPa, x1 = 0.8518 | 1.13
413.15 K, 1376 kPa, x1 = 0.8808 | 0.969
413.15 K, 1376 kPa, x1 = 0.9079 | 0.794
413.15 K, 1376 kPa, x1 = 0.9332 | 0.608
413.15 K, 1376 kPa, x1 = 0.9568 | 0.41
413.15 K, 1376 kPa, x1 = 0.9791 | 0.21

CCOC(C)=O [ethyl acetate] + CCCCCC
[3]
Conditions | excess molar enthalpy [kJ/mol]
363.15 K, 1583 kPa, x2 = 0.0377 | 0.176
363.15 K, 1583 kPa, x2 = 0.0764 | 0.356
363.15 K, 1583 kPa, x2 = 0.1162 | 0.534
363.15 K, 1583 kPa, x2 = 0.157 | 0.687
363.15 K, 1583 kPa, x2 = 0.1989 | 0.821
363.15 K, 1583 kPa, x2 = 0.242 | 0.953
363.15 K, 1583 kPa, x2 = 0.2862 | 1.06
363.15 K, 1583 kPa, x2 = 0.3318 | 1.15
363.15 K, 1583 kPa, x2 = 0.3786 | 1.22
363.15 K, 1583 kPa, x2 = 0.4269 | 1.28
363.15 K, 1583 kPa, x2 = 0.4765 | 1.29
363.15 K, 1583 kPa, x2 = 0.5277 | 1.3
363.15 K, 1583 kPa, x2 = 0.5804 | 1.27
363.15 K, 1583 kPa, x2 = 0.6347 | 1.22
363.15 K, 1583 kPa, x2 = 0.6908 | 1.12
363.15 K, 1583 kPa, x2 = 0.7487 | 0.992
363.15 K, 1583 kPa, x2 = 0.8084 | 0.824
363.15 K, 1583 kPa, x2 = 0.8702 | 0.609
363.15 K, 1583 kPa, x2 = 0.934 | 0.334
413.15 K, 1376 kPa, x2 = 0.0377 | 0.189
413.15 K, 1376 kPa, x2 = 0.0765 | 0.361
413.15 K, 1376 kPa, x2 = 0.1162 | 0.527
413.15 K, 1376 kPa, x2 = 0.1571 | 0.679
413.15 K, 1376 kPa, x2 = 0.199 | 0.815
413.15 K, 1376 kPa, x2 = 0.2421 | 0.939
413.15 K, 1376 kPa, x2 = 0.2864 | 1.05
413.15 K, 1376 kPa, x2 = 0.332 | 1.14
413.15 K, 1376 kPa, x2 = 0.3788 | 1.21
413.15 K, 1376 kPa, x2 = 0.427 | 1.26
413.15 K, 1376 kPa, x2 = 0.4767 | 1.28
413.15 K, 1376 kPa, x2 = 0.5279 | 1.28
413.15 K, 1376 kPa, x2 = 0.5806 | 1.25
413.15 K, 1376 kPa, x2 = 0.6349 | 1.2
413.15 K, 1376 kPa, x2 = 0.691 | 1.11
413.15 K, 1376 kPa, x2 = 0.7488 | 0.989
413.15 K, 1376 kPa, x2 = 0.8086 | 0.819
413.15 K, 1376 kPa, x2 = 0.8703 | 0.603
413.15 K, 1376 kPa, x2 = 0.934 | 0.33

CC(=O)OC(C)C [1-methylethyl ethanoate] + CCCCCCCCCCCC
[1]
Conditions | activity coefficient
303.16 K | 2.82
313.17 K | 2.66
323.2 K | 2.52
333.16 K | 2.42

CC(=O)OC(C)C [1-methylethyl ethanoate] + CCCCCCCCCC
[1]
Conditions | activity coefficient
303.16 K | 2.56
313.14 K | 2.48
323.17 K | 2.41
333.16 K | 2.36

CCCCCCCCCCCCCC(=O)OCC [ethyl tetradecanoate]
Conditions | Solid-liquid equilibrium temperature
[2] | 286.33 K and 286.36 K

CCOC(C)=O [ethyl acetate] + CCCCCCCCCCCC
[1]
Conditions | activity coefficient
303.16 K | 3.25
313.17 K | 3.05
323.2 K | 2.88
333.16 K | 2.71

COC(C)=O [methyl ethanoate] + CCCCCC
[3]
Conditions | excess molar enthalpy [kJ/mol]
363.15 K, 1617 kPa, x1 = 0.0801 | 0.496
363.15 K, 1617 kPa, x1 = 0.1552 | 0.885
363.15 K, 1617 kPa, x1 = 0.2259 | 1.17
363.15 K, 1617 kPa, x1 = 0.2925 | 1.38
363.15 K, 1617 kPa, x1 = 0.3554 | 1.53
363.15 K, 1617 kPa, x1 = 0.4148 | 1.62
363.15 K, 1617 kPa, x1 = 0.471 | 1.66
363.15 K, 1617 kPa, x1 = 0.5244 | 1.67
363.15 K, 1617 kPa, x1 = 0.575 | 1.64
363.15 K, 1617 kPa, x1 = 0.6232 | 1.6
363.15 K, 1617 kPa, x1 = 0.669 | 1.51
363.15 K, 1617 kPa, x1 = 0.7127 | 1.41
363.15 K, 1617 kPa, x1 = 0.7544 | 1.29
363.15 K, 1617 kPa, x1 = 0.7942 | 1.15
363.15 K, 1617 kPa, x1 = 0.8322 | 0.99
363.15 K, 1617 kPa, x1 = 0.8687 | 0.819
363.15 K, 1617 kPa, x1 = 0.9036 | 0.634
363.15 K, 1617 kPa, x1 = 0.937 | 0.431
363.15 K, 1617 kPa, x1 = 0.9692 | 0.22
413.15 K, 1376 kPa, x1 = 0.0801 | 0.496
413.15 K, 1376 kPa, x1 = 0.1552 | 0.898
413.15 K, 1376 kPa, x1 = 0.2259 | 1.2
413.15 K, 1376 kPa, x1 = 0.2925 | 1.42
413.15 K, 1376 kPa, x1 = 0.3553 | 1.58
413.15 K, 1376 kPa, x1 = 0.4148 | 1.68
413.15 K, 1376 kPa, x1 = 0.471 | 1.73
413.15 K, 1376 kPa, x1 = 0.5244 | 1.74
413.15 K, 1376 kPa, x1 = 0.575 | 1.71
413.15 K, 1376 kPa, x1 = 0.6232 | 1.67
413.15 K, 1376 kPa, x1 = 0.669 | 1.58
413.15 K, 1376 kPa, x1 = 0.7127 | 1.48
413.15 K, 1376 kPa, x1 = 0.7544 | 1.34
413.15 K, 1376 kPa, x1 = 0.7942 | 1.2
413.15 K, 1376 kPa, x1 = 0.8322 | 1.03
413.15 K, 1376 kPa, x1 = 0.8687 | 0.85
413.15 K, 1376 kPa, x1 = 0.9036 | 0.65
413.15 K, 1376 kPa, x1 = 0.937 | 0.447
413.15 K, 1376 kPa, x1 = 0.9692 | 0.227
